Tests used:
[1] = target: T1, 7-dehydrocholesterol reductase (Homo sapiens, UniProt Q9UBM7); assay: Growth inhibition of MDA-MB-435 cells containing antiestrogen binding sites
T1 sequence (Q9UBM7 whole entry): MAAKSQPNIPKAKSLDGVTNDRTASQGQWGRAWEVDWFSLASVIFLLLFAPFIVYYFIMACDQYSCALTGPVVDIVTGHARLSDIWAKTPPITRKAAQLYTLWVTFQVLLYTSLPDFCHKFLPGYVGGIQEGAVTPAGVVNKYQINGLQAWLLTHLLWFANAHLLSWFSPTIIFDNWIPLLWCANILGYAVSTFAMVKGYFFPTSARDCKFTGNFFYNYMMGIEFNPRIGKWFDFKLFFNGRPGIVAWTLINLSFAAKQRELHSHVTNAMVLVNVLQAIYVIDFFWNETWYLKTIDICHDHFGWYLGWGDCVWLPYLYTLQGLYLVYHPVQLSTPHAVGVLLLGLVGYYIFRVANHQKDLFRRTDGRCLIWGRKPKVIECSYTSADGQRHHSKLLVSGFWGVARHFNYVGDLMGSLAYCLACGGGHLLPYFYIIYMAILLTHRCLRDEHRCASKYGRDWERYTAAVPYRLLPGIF

[2] = target: T1, 7-dehydrocholesterol reductase; assay: Growth inhibition of MDA-MB-231 cells containing antiestrogen binding sites
[3] = target: T1, 7-dehydrocholesterol reductase; assay: Growth inhibition of multidrug resistant MCF7/Adr cells containing antiestrogen binding sites
[4] = target: T1, 7-dehydrocholesterol reductase; assay: Growth inhibition of MCF7 cells expressing ER and antiestrogen binding sites

Row | Structure (SMILES) | IC50 [1] | IC50 [2] | IC50 [3] | IC50 [4]
1 | CC/C(=C(/c1ccc(O)cc1)c1ccc(OCCN(C)CCOCCOCCO/N=C/c2ccc(O)c(C(=O)NCN[C@H]3C[C@H](O[C@H]4C[C@](O)(C(=O)CO)Cc5c(O)c6c(c(O)c54)C(=O)c4c(OC)cccc4C6=O)O[C@@H](C)[C@H]3O)c2)cc1)c1ccccc1 | 0.04 µM | 0.03 µM | 0.06 µM | 0.03 µM
2 | COc1cccc2c1C(=O)c1c(O)c3c(c(O)c1C2=O)C[C@@](O)(C(=O)CO)C[C@@H]3O[C@H]1C[C@H](NCNC(=O)c2ccccc2O)[C@H](O)[C@H](C)O1 | 0.05 µM | 0.08 µM | 2 µM | 0.07 µM
